From patent publication US4495202A, “Terphenyl derivatives and pharmaceutical uses thereof” (Eli Lilly and Company, priority 1983, dated 1985)
Like-named read-outs stand apart in the source and are kept apart here.

How the values were obtained:
male Lewis-Wistar rats = experiment: Established adjuvant-induced arthritis test in rats; format: in vivo; details: rat, days 15-29, from areas under the curves of uninjected paw volume
[1] = test system: Cox standard strain albino male mice; experiment: standard mouse writhing assay (acetic acid-induced writhing); format: in vivo
Method: The analgesic activity of a number of compounds provided by this invention has been determined in the standard mouse writhing assay. Writhing, which is characterized by contraction of the abdominal musculature, extension of the hindlegs, and rotation of the trunk, was induced in Cox standard strain albino male mice. […] Each treatment group consisted of five mice. The total number of writhes for the treatment group was determined during a 10-minute observation starting five minutes after acetic acid administration. […] Table I which follows presents typical test results obtained with certain of the compounds of this invention. The results in the mouse writhing assay are presented as the effective oral (p.o.) dose in mg./kg. of the tested compound required to inhibit induced writhing in the test animals by fifty percent (ED50).

[2] = 25 mg./kg. p.o. × 15, corn oil-acacia emulsion by gavage
[3] = 3 h, oral gavage in corn oil-acacia emulsion (5%), three hours before acetic acid (0.60 percent, i.p.), inhibition of writhing by fifty percent, read-out: Mouse Writhing ED50
[4] = 10 mg./kg. p.o. × 15, corn oil-acacia emulsion by gavage

Structure (SMILES)	% Inhibition of Uninjected Paw Volume Inflammation, Days 14 through 30 (male Lewis-Wistar rats; [2])	ED50 [1, 3]	ED50 ([1]; 4 h, oral, at four hours post dosing, read-out: Mouse Writhing ED50 at four hours post dosing)	% Inhibition of Uninjected Paw Volume Inflammation, Days 14 through 30 (male Lewis-Wistar rats; [4])
COc1ccc(-c2ccc(-c3ccc(F)cc3)cc2-c2ccc(OC)cc2)cc1 [Example 1, 4'-(4-Fluorophenyl)-4,4"-dimethoxy-1,1':2',1"-terphenyl]	55%	11.8 mg/kg	3.9 mg/kg	–
COc1ccc(-c2ccc(-c3ccccc3)cc2-c2ccc(OC)cc2)cc1 [Example 2, 4'-Phenyl-4,4"-dimethoxy-1,1':2',1"-terphenyl]	13%	14.6 mg/kg	–	–
COc1ccc(-c2ccc(-c3ccc(Cl)cc3)cc2-c2ccc(OC)cc2)cc1 [Example 3, 4'-(4-Chlorophenyl)-4,4"-dimethoxy-1,1':2',1"-terphenyl]	52%	14.2 mg/kg	–	31%
COc1ccc(-c2ccc(-c3ccc(Br)cc3)cc2-c2ccc(OC)cc2)cc1 [Example 4, 4'-(4-Bromophenyl)-4,4"-dimethoxy-1,1':2',1"-terphenyl]	34%	72.8 mg/kg	–	–
COc1ccc(-c2ccc(-c3cccc(F)c3)cc2-c2ccc(OC)cc2)cc1 [Example 5, 4'-(3-Fluorophenyl)-4,4"-dimethoxy-1,1':2',1"-terphenyl]	40%	8.9 mg/kg	–	–
COc1ccc(-c2ccc(C(F)(F)F)cc2-c2ccc(OC)cc2)cc1 [Example 6, 4'-Trifluoromethyl-4,4"-dimethoxy-1,1':2',1"-terphenyl]	–	5.6 mg/kg	–	48%
